ChEMBL document CHEMBL1681767, “Design and synthesis of tricyclic tetrahydroquinolines as a new series of nonsteroidal selective androgen receptor modulators (SARMs)” (Bioorg Med Chem Lett, 2011)
The source made the active and inactive calls. No cut-off for these calls is given here.

Assays:
Progesterone receptor = target: T1, Progesterone receptor (Oryctolagus cuniculus, UniProt P06186); assay: Displacement of [3H]progesterone from rabbit PR by liquid scintillation counting
T1 sequence (P06186 whole entry): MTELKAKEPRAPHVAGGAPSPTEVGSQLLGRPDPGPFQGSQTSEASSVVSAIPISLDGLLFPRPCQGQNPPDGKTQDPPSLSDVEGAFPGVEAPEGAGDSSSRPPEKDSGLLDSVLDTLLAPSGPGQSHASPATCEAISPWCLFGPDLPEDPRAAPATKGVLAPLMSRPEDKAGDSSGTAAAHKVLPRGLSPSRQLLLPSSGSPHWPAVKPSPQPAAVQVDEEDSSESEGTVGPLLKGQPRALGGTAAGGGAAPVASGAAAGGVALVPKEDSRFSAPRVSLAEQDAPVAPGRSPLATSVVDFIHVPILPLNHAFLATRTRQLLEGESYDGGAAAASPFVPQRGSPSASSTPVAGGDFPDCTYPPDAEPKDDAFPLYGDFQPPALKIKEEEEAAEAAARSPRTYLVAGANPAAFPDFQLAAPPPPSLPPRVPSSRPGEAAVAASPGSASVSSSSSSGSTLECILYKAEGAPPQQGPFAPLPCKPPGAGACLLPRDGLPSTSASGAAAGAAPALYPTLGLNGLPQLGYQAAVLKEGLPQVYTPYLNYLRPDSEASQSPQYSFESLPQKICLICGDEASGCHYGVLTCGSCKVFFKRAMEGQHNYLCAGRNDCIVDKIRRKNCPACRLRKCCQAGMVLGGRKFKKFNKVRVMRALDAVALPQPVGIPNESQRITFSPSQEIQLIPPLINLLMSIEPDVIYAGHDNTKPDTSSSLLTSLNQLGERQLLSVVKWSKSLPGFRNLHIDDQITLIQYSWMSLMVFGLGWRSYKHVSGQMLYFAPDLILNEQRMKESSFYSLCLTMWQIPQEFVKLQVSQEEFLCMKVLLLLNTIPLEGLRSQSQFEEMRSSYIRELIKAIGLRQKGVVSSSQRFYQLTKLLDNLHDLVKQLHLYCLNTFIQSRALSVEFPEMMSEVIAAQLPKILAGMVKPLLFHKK

Rattus norvegicus [1] = assay: Recovery of […] weight in orchidectomized Sprague-Dawley rat at 3 mg/kg, sc relative to control; assay type: functional; settings: route subcutaneous
[2] = Displacement of [3H]17-beta-estradiol from rabbit ER by liquid scintillation counting; parameters: species or system Oryctolagus cuniculus
Glucocorticoid receptor = target: T2, Glucocorticoid receptor (Rattus norvegicus, UniProt P06536); assay: Displacement of [3H]dexamethasone from Sprague-Dawley rat GR by liquid scintillation counting
T2 sequence (P06536 whole entry): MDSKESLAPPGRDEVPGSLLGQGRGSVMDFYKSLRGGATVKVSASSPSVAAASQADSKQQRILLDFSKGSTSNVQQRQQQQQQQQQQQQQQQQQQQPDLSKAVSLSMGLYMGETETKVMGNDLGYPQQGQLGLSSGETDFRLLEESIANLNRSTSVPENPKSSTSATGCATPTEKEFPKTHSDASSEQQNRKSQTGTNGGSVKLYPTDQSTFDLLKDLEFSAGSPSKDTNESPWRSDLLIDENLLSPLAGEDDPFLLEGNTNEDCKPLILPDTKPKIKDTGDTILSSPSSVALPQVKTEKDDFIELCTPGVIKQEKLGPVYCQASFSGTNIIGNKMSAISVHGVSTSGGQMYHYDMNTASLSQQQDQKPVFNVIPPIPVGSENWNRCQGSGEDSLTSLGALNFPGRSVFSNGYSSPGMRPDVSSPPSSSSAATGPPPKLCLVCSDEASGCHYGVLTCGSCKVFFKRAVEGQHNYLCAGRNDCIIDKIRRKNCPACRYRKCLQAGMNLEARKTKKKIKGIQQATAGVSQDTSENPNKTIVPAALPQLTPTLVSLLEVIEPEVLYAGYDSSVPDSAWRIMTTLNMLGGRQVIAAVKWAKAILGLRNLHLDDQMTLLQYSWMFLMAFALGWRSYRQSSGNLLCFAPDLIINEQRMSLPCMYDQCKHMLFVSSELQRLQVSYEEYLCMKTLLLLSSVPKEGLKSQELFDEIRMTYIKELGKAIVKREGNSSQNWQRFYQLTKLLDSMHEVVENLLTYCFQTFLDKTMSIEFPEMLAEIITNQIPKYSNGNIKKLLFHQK

[3] = target: T3, Mineralocorticoid receptor (Rattus norvegicus, UniProt P22199); assay: Displacement of [3H]aldosterone from Sprague-Dawley rat MR by liquid scintillation counting
T3 sequence (P22199 whole entry): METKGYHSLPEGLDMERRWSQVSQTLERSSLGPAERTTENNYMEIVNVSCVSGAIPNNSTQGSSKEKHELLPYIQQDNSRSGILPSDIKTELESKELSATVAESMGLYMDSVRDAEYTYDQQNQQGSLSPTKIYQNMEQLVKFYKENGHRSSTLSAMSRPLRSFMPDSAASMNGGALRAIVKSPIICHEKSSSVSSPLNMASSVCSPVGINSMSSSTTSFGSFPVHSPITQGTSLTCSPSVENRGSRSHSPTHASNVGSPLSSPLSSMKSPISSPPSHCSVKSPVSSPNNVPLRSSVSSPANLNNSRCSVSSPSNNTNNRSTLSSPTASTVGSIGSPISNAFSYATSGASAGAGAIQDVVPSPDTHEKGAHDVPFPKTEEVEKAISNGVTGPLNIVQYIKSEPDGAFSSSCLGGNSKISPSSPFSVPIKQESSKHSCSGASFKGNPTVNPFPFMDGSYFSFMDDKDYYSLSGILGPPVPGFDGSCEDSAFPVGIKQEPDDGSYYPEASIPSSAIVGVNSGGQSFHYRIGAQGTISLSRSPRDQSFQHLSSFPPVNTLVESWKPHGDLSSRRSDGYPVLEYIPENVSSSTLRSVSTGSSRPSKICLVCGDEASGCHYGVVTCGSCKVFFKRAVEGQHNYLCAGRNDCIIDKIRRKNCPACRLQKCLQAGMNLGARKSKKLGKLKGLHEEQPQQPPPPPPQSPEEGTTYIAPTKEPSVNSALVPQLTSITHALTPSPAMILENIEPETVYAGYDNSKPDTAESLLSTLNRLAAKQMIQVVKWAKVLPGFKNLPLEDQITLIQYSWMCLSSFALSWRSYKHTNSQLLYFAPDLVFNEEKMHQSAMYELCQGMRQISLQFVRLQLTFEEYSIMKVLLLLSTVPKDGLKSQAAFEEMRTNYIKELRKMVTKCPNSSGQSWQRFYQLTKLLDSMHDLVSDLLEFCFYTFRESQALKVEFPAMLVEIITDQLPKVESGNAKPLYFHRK

Rattus norvegicus [4] = assay: Recovery of levator ani muscle weight in orchidectomized Sprague-Dawley rat at 3 mg/kg, sc; assay type: functional, organism-based; parameters: dose 3 mg/kg

For `CC(C)(CO)[C@H]1Nc2ccc([N+](=O)[O-])cc2[C@H]2C=CC[C@H]21`, the IC50 (Progesterone receptor) was 0.13 µM, the Activity (Rattus norvegicus [1]) was 50% and the IC50 [2] was greater than 1000 µM. For the same compound, the IC50 (Glucocorticoid receptor) was 18 µM, the IC50 [3] was 6.3 µM and the Activity (Rattus norvegicus [4]) was “Active”.
